Measured values taken from ChEMBL document CHEMBL5034035, “Discovery of an Oxycyclohexyl Acid Lysophosphatidic Acid Receptor 1 (LPA1) Antagonist BMS-986278 for the Treatment of Pulmonary Fibrotic Diseases” (J Med Chem, 2021).
In brackets after ≈: the same amount, converted by molar mass.

Assays:
[1] = Oral bioavailability in Sprague-Dawley rat at 3 mg/kg measured up to 24 hrs by LC-MS/MS analysis; assay type: ADME, organism-based; details: in vivo
[2] = target: Lysophosphatidic acid receptor 1 (Mus musculus) (UniProt P61793); experiment: Antagonist activity at mouse LPA1 receptor expressed in CHO cells assessed as inhibition of LPA stimulated calcium flux incubated for 20 mins followed by LPA stimulation and measured for 90 seconds; assay type: functional, cell-based; details: filed as antagonist
Cytochrome P450 1A2 = target: T1, Cytochrome P450 1A2 (Homo sapiens, UniProt P05177); experiment: Inhibition of CYP1A2 (unknown origin); assay type: ADME
T1 sequence (P05177 whole entry): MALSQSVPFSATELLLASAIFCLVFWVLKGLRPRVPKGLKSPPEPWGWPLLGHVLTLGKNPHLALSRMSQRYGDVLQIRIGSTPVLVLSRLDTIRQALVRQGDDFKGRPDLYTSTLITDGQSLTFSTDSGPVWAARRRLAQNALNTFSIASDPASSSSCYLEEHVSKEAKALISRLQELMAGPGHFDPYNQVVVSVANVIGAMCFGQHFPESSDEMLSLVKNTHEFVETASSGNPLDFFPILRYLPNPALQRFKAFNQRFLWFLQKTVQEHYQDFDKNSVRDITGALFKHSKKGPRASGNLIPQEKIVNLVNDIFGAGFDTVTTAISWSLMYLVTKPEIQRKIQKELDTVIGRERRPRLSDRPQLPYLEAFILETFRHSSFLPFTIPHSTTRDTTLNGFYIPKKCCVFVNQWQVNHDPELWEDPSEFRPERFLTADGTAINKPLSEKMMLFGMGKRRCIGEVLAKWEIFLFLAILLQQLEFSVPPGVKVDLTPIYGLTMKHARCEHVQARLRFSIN

[3] = Half life in rat liver microsomes at 10 uM measured after 120 mins; assay type: ADME, Microsome
[4] = Lipophilicity, log D of compound at pH 6.5 by shake-flask method; assay type: physicochemical; details: buffer
[5] = Drug metabolism in monkey hepatocytes assessed as formation of acyl glucuronides metabolites at 10 uM measured after 2 hrs by LC/UV/MS analysis; assay type: ADME, cell-based, Macaca mulatta, Hepatocyte; details: rhesus monkey
[6] = Elimination half life in cynomolgus monkey at 3 mg/kg, po or 1 mg/kg, iv measured up to 24 hrs by LC-MS/MS analysis; assay type: ADME, organism-based, Macaca fascicularis; details: in vivo, read-out: beta t1/2 (converted)
Cytochrome P450 3A4 = Cytochrome P450 3A4 (Homo sapiens, UniProt P08684); experiment: Inhibition of CYP3A4 (unknown origin); assay type: ADME
[7] = Volume of distribution at steady state in Sprague-Dawley rat at 3 mg/kg, po or 1 mg/kg, iv measured up to 24 hrs by LC-MS/MS analysis; assay type: ADME, organism-based; details: in vivo, read-out: Vdss
[8] = Plasma clearance in CD-1 mouse at 3 mg/kg, po or 1 mg/kg, iv measured up to 24 hrs by LC-MS/MS analysis; assay type: ADME, organism-based
[9] = Elimination half life in CD-1 mouse at 3 mg/kg, po or 1 mg/kg, iv measured up to 24 hrs by LC-MS/MS analysis; assay type: ADME, organism-based; details: in vivo, read-out: beta t1/2 (converted)
[10] = target: T2, ATP-binding cassette sub-family C member 4 (Homo sapiens, UniProt O15439); experiment: Inhibition of MRP4 (unknown origin)
T2 sequence (O15439 whole entry): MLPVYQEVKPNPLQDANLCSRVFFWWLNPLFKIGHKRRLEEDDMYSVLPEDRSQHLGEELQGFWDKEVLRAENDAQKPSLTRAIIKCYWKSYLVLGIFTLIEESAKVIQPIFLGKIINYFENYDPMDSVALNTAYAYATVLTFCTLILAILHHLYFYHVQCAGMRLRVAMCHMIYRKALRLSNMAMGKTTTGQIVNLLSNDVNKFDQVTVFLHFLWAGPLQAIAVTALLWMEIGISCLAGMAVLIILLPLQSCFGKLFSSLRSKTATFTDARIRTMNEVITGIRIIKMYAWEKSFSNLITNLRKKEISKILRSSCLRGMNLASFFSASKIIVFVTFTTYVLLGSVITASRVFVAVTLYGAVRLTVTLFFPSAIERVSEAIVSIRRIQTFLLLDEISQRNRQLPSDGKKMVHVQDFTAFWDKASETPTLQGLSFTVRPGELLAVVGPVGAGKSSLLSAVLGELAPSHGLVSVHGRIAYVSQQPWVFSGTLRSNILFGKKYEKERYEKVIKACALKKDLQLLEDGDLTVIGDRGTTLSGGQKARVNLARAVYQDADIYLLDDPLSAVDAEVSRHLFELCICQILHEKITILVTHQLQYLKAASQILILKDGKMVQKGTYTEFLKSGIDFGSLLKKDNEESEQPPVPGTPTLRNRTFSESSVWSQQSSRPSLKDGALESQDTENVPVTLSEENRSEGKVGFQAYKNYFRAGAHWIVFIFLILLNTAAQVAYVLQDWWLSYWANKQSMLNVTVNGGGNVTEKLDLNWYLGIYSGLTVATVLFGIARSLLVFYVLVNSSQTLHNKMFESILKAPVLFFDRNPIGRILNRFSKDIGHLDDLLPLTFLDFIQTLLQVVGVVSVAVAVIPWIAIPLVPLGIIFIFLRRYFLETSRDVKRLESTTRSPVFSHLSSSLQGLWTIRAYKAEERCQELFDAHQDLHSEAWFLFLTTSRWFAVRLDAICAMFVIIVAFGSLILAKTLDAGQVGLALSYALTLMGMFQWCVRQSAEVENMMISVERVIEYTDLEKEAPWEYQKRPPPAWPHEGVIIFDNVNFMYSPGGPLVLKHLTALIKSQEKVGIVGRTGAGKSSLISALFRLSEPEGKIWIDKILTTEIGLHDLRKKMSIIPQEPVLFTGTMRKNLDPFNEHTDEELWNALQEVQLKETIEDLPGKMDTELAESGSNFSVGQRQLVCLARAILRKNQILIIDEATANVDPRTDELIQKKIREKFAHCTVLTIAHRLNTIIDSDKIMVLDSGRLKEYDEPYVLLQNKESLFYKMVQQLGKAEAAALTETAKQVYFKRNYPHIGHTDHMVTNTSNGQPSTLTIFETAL

[11] = Volume of distribution at steady state in CD-1 mouse at 3 mg/kg, po or 1 mg/kg, iv measured up to 24 hrs by LC-MS/MS analysis; assay type: ADME, organism-based; details: in vivo, read-out: Vdss
[12] = Volume of distribution at steady state in cynomolgus monkey at 3 mg/kg, po or 1 mg/kg, iv measured up to 24 hrs by LC-MS/MS analysis; assay type: ADME, organism-based, Macaca fascicularis; details: in vivo, read-out: Vdss
Cytochrome P450 2C9 = Cytochrome P450 2C9 (Homo sapiens, UniProt P11712); experiment: Inhibition of CYP2C9 (unknown origin); assay type: ADME
[13] = Elimination half life in Sprague-Dawley rat at 3 mg/kg, po or 1 mg/kg, iv measured up to 24 hrs by LC-MS/MS analysis; assay type: ADME, organism-based; details: in vivo, read-out: beta t1/2 (converted)
[14] = Protein binding in CD-1 mouse plasma assessed as free fraction at 3 mg/kg, po or 1 mg/kg, iv measured up to 24 hrs by LC-MS/MS analysis; assay type: ADME, organism-based
[15] = Aqueous solubility of compound at pH 7.4; assay type: physicochemical
CYP2B6 = CYP2B6 (Homo sapiens, UniProt P20813); experiment: Induction of CYP2B6 in human hepatocytes; assay type: ADME, cell-based, Hepatocyte
Chain of CYP2B6 (P20813 whole entry): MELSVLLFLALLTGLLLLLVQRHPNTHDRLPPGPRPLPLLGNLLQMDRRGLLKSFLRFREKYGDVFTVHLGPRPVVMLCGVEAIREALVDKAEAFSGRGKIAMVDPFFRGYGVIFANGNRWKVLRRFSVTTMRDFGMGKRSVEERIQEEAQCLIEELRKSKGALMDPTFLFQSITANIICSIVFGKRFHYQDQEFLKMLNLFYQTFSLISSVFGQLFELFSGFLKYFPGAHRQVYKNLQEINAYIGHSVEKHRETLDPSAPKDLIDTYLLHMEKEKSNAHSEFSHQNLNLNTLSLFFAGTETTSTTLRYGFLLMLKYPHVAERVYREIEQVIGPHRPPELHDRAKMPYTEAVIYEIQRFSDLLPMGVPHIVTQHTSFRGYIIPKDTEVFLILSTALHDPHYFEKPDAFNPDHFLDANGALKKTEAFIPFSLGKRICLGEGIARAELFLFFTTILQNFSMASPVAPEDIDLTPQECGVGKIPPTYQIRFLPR

Chain of Cytochrome P450 3A4 (P08684 whole entry): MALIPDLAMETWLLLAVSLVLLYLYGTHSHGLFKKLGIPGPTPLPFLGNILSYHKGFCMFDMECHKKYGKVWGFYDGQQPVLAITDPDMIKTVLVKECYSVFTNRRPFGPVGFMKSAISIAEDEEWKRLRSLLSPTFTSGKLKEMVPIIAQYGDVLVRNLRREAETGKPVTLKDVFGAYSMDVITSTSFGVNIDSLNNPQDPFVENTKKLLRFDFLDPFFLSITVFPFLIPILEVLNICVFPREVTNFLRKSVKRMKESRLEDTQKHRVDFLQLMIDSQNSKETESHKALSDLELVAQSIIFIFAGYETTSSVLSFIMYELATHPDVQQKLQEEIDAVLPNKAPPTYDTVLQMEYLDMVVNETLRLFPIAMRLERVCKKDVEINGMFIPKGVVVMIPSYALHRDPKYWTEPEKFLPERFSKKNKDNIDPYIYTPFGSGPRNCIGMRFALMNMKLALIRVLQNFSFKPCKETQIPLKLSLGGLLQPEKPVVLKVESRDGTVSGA
Chain of Cytochrome P450 2C9 (P11712 whole entry): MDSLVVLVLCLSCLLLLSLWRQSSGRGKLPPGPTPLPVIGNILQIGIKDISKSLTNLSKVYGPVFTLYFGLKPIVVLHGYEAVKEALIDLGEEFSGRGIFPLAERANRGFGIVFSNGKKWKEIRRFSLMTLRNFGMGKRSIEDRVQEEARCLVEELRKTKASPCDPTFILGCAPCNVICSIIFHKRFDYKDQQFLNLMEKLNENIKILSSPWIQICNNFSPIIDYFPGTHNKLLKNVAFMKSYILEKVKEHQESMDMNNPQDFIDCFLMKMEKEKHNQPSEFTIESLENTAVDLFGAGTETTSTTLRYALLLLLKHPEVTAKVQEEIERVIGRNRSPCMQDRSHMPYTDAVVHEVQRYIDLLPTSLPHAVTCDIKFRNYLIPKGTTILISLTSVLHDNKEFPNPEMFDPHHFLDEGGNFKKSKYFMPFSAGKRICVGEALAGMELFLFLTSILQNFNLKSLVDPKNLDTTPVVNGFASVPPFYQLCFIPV
Chain of Lysophosphatidic acid receptor 1 (Mus musculus) (P61793 whole entry): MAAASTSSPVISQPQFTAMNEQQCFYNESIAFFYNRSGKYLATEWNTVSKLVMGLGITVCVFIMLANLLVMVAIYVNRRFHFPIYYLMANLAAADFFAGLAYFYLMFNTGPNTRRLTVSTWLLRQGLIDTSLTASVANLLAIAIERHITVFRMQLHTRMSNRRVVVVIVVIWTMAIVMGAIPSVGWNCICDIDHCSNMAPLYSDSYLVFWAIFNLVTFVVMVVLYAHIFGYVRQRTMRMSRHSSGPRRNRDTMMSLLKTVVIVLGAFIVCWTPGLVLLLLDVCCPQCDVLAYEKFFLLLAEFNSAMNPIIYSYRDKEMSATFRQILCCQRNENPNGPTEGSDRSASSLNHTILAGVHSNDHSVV

Row | SMILES | bioavailability [1] | Kb [2] | IC50 (Cytochrome P450 1A2) | half-life at 10 µM [3] | logD [4] | Drug metabolism [5] | half-life [6] | IC50 (Cytochrome P450 3A4) | Vd [7] | clearance [8] | half-life [9] | IC50 [10] | Vd [11] | Vd [12] | IC50 (Cytochrome P450 2C9) | half-life [13] | fraction unbound at 24 h [14] | solubility [15] | IC50 (CYP2B6)
1 | CCCN(C)C(=O)OCc1c(-c2ccc(O[C@H]3CCC[C@H](C(=O)O)C3)c(C)n2)nnn1C [ADMILPARANT] | 100% | 0.004 µM | > 40 µM | > 2 h | 1.95 | Metabolite_Detected | 11 h | > 40 µM | 3.5 L/kg | 37 mL/min/kg | 2.5 h | 47 µM | 5.5 L/kg | 1.6 L/kg | > 40 µM | 4.5 h | 0.314 |  | 
2 | Cc1nc(-c2nnn(C)c2COC(=O)N(C)CC2CCC2)ccc1O[C@H]1CCC[C@H](C(=O)O)C1 | 69% |  | > 40 µM | > 2 h | 2.3 | Metabolite_Detected | 14 h | > 40 µM | 9 L/kg | 118 mL/min/kg | 1.5 h | 16 µM | 14.6 L/kg | 6.3 L/kg | > 40 µM | 2 h | 0.1 | 705 µg/mL (≈ 1500 µM) | > 50 µM
3 | Cc1noc(-c2ccc(-c3ccc(C4(C(=O)O)CC4)cc3)cc2)c1NC(=O)O[C@H](C)c1ccccc1 [BMS-986020] |  | 0.0037 µM | > 50 µM | 1.27 h | 3.6 |  |  | > 50 µM |  |  |  | 6.2 µM |  |  | 5.5 µM |  | 0.006 | 11 µg/mL (≈ 22.8 µM) | > 50 µM
